According to patent US11306117B2, “Whitening composition containing novel quercetin-based compound” (AMOREPACIFIC CORPORATION, priority 2017, dated 2022):

Key:
[1] = test system: Mel-Ab cell line; assay: Inhibition of melanogenesis in Mel-Ab cells (method of Dooley); format: cell-based, C57BL/6; conditions: melanin by absorbance at 400 nm after 5 days
Protocol: The effects of New Materials 31 and 32 on inhibiting melanogenesis were compared with Kojic acids which have been known to have an excellent skin whitening effect, and measured.
Specifically, the degree of melanogenesis in cells was measured by a method of Dooley. As the cell line, Mel-Ab cell line (Falcon, U.S.A.) derived from a skin pigment of C57BL/6 was used. Culturing was made under the condition of 37° C., 5% CO2 of a DMEM medium containing 10% placenta serum, 100 nM 12-O-tetradecanoylphorbol-13-acetate, and 1 nM Cholera Toxin. The test materials were treated in the manner where the cultured Mel-Ab cell was isolated with 0.25% trypsin-EDTA, and inoculated again with the same number (1×10^5 cells/well) in the 24-well plate, and then the medium was replaced with a medium containing the test materials for two days from the second day. As the test materials, 5 ppm, 10 ppm, 25 ppm and 50 ppm of New Materials 31 and 32, 25 ppm, 50 ppm and 100 ppm of Kojic acids and DMSO (control) were used. After 5 days, the test materials were treated with 1N-NaOH to dissolve melanin contained in the cell, and the amount of melanin was measured by measuring absorbance at 400 nm. The concentration (IC50) of the material necessary for reducing melanogenesis of melanocyte by half was calculated, and the results are shown in following Table 4.

[2] = biological target: mushroom tyrosinase; assay: Inhibition of tyrosinase activity; format: biochemical; conditions: L-tyrosine, 37° C., 20 minutes, absorbance 490 nm
Protocol: The effect of New Materials 31 and 32 on inhibiting tyrosinase activity was evaluated.
Specifically, tyrosinase and tyrosine derived from mushroom were obtained from Sigma Chemical. Together with 150 μl of 0.1 M phosphate buffer (pH 6.5), 8 μl of mushroom tyrosinase (2,100 unit/ml) and 0.05 M concentration of L-tyrosine, arbutin and New Materials 31 and 32 were treated at the concentrations of following Table 3, respectively. The tyrosinase activity was evaluated by performing the enzyme reaction at 37° C. for 20 minutes and then measuring absorbance at 490 nm using a microplate reader (Bio-Rad 3550, Richmond, Calif., U.S.A.).

Compound | IC50 inhibiting melanogenesis [1] [ppm] | IC50 inhibiting tyrosinase activity [2] [ppm]
O=c1cc(CO)occ1O [Kojic acids, reference compound] | 39.36 | 
OC[C@H]1O[C@@H](Oc2ccc(O)cc2)[C@H](O)[C@@H](O)[C@@H]1O [Arbutin, arbutin, reference compound] |  | 149
